The values below come from US20110065675A1, “AZO DYE RELATED SMALL MOLECULE MODULATORS OF PROTEIN-PROTEIN INTERACTIONS” (University of Miami, priority 2008, published 2011).

The target of assay [1] is human TNF-R1/TNFα (Homo sapiens, UniProt P01375+P19438). The assay is described as follows: Specificity test: human TNF-R1/TNFα binding inhibition assay. The note with it: for IC50: cell-free binding, read-out: Human TNFR1/TNFα IC50. The text has this:
A main concern for the therapeutic applicability of these compounds and of small molecule PPI inhibitors in general is related to their ability to achieve some acceptable degree of selectivity/specificity for the PPI of interest. To identify compounds that show acceptable specificity for the CD40/CD154 system, their ability to inhibit the TNF-R1/TNF-α PPI was investigated since this is particularly relevant as CD154 is part of the TNF superfamily. The experimental setup used was very similar to the one described in Example 1, but using plate-coated TNF-R1 and TNF-α as ligand (with a corresponding anti-TNF-α mAb as positive control). The concentration of TNF-R1 and TNF-α used were 0.6 μg/mL and 0.02 μg/mL, respectively.

Assay [2] has as its target T1, mouse CD40/CD154 (mCD40:mCD154) (Mus musculus, UniProt P27548).
T1 construct: (FLAG-tagged) mCD154 (recombinant mouse CD40L, soluble, Alexis Biochemicals); purchased R&D Systems (mCD40/Fc); Alexis Biochemicals (mCD154)
T1 sequence (P27548 112-260 limits assumed): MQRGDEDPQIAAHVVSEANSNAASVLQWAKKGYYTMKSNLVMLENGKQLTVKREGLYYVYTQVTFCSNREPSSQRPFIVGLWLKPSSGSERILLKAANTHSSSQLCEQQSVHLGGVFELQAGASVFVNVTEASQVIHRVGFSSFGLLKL
The assay is described as follows: Murine CD40/CD154 binding inhibition assay. The note with it: for IC50: cell-free binding, read-out: Mouse CD40/CD154 IC50. The protocol:
Compounds of interest were also tested in a murine (mouse) model similar to the human one with murine CD40 and CD154 replacing the corresponding human proteins. This serves as additional confirmation of the in vitro inhibitory potential of these compounds, and it was considered important because mouse models are likely to be used as the first in vivo tests. […] The experimental setup used was similar to the one described above, but using mCD40 (recombinant mouse CD40/TNFRSF5/Fc Chimera, soluble, R&D Systems) and (FLAG-tagged) mCD154 (recombinant mouse CD40L, soluble, Alexis Biochemicals). This time, however, a higher concentration of CD154 ligand had to be employed to obtain adequate signals, and after a number of calibration tests, mCD40 coating at 0.3125 μg/mL with mCD154 (mCD40L) at 1.1212 μg/mL range was selected to be used to screen the inhibiting activity of various compounds.
The experiments confirmed that the murine anti-CD154 monoclonal antibody (Taconic, MR1) was active in this system at the expected concentration (˜1 nM range), the human antibody was not, and vice versa, the human mAb was active in the human system, but not in the mouse system. The mouse system provided a similar range of activity with some (up to approximately five-fold) changes in activities compared to that seen in the human system (FIG. 2) (Table 1).

The subject of assay [3] is human CD19+ B cells. The assay is described as follows: Inhibition of CD154-induced human B-cell proliferation (BrdU ELISA). The assay is classed as cell-based. The text has this:
CD40 stimulation is an important proliferation signal for human B cell proliferation (Fecteau et al., “CD40 stimulation of human peripheral B lymphocytes: distinct response from naive and memory cells. J. Immunol., vol. 171, pp. 4621-4629, 2003; Wiesner et al., “Conditional immortalization of human B cells by CD40 ligation,” PLoS ONE, vol. 3, pp. e1464, 2008), and soluble CD154 (CD40 ligand) can dose-dependently induce the proliferation of human CD19^+ B cells as measured by standard proliferation .assays. […]
The detailed procedure is as follows: Frozen MPB CD19^+ B lymphocytes (approximately 10^6 cells per vial) were obtained from StemCells Technologies (Vancouver, Canada), thawed in a 37° C. water bath until no crystal piece was left, and the cell suspension was transferred to a 50 mL conical tube. […] This was repeated, the cells were counted, and the concentration of viable cells was adjusted to approximately 1×10^6 cells/mL. […] A colorimetric cell proliferation ELISA BrdU from Roche Applied Science (Indianapolis, Ind.) was used as immunoassay for quantification of cell proliferation based on the measurement of BrdU incorporation during DNA replication. […]
(Uptake of a labelled nucleoside into DNA is a usual measure of proliferation.)

Chain of human TNF-R1/TNFα (P01375 77-233 limits assumed): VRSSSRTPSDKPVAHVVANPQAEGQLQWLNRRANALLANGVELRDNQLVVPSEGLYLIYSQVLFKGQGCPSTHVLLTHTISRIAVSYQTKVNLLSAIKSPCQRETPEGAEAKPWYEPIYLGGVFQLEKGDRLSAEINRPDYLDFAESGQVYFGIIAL
Chain of human TNF-R1/TNFα (P19438 30-211 limits assumed): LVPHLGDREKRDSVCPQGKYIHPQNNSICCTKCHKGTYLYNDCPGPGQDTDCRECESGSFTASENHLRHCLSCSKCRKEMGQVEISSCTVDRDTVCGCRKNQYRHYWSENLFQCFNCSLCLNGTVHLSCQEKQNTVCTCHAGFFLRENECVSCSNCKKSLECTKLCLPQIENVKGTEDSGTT

`Cc1ccc(C(=O)Nc2ccc(S(=O)(=O)O)c3cc(S(=O)(=O)O)cc(S(=O)(=O)O)c23)cc1NC(=O)c1cccc(NC(=O)Nc2cccc(C(=O)Nc3cc(C(=O)Nc4ccc(S(=O)(=O)O)c5cc(S(=O)(=O)O)cc(S(=O)(=O)O)c45)ccc3C)c2)c1` [Suramin, reference compound]: the IC50 in assay [1] is 486 µM; in assay [2], 4.5 µM; in assay [3] (Homo sapiens, B-cell, CD19+ B cells, 48 h + 48 h BrdU) it was 50 to 100 µM.
Regarding `O=C([O-])C1=NN(c2ccc(S(=O)(=O)[O-])cc2)C(=O)C1N=Nc1ccc(S(=O)(=O)[O-])cc1.[Na+].[Na+].[Na+]` (centres unmarked) [Tartrazine (FD&C yellow 5), Tartrazine, reference compound], the IC50 in assay [1] and in assay [2] was greater than 2000 µM each time. For the same compound, in assay [1] (log of IC50, cell-free binding), the “Human TNFR1/TNFα log IC50” value is greater than −3.0. For the same compound, the “Mouse CD40/CD154 log IC50” value in assay [2] (log of IC50, cell-free binding) is given as greater than −3.0. Besides, the “Inhibition of CD154-induced B-cell proliferation” value in assay [3] was “no proliferation inhibiting activity”.
